This is an account of results in patent US4898863A, “Heterocyclic carboxamides” (ICI Americas Inc., priority 1986, dated 1990).

Molecules are shown by their SMILES.

Data set [1] has as its system leukotriene LTD4. Nature of the data set: in vivo guinea-pig aerosol test (leukotriene LTD4 challenge, time of onset of breathing changes). Conditions: Cavia porcellus, oral, read-out: effective dose following oral administration.
Data set [2] can be described thus: overt toxicity / untoward side-effects in dosed laboratory animals. The data set is classed as in vivo, guinea-pig.

In the case of `COc1cc(C(=O)NS(=O)(=O)c2ccccc2C)ccc1Cn1cc(CCC(=O)N2CCCC2)c2ccc(C(=O)NCC3CCCC3)cc21` [Example 8, N-[4-[6-(N-Cyclopentylmethylcarbamoyl)-3-[2-(pyrrolidinocarbonyl)ethyl]indol-1-ylmethyl]-3-methoxybenzoyl]-2-methylbenzesulphonamide], the minimal effective dose in data set [1] turned out to be 2000 µmol/kg. Besides, the “oral dose showing no sign of overt toxicity” value in data set [2] came out at 30 mmol/kg.
